According to patent US20180256519A1, “COMPOSITION FOR PREVENTING OR TREATING MITOCHONDRIAL DISEASES CAUSED BY IMMUNOSUPPRESSANTS, AND IMMUNE DISEASES, CONTAINING METFORMIN” (THE CATHOLIC UNIVERSITY OF KOREA INDUSTRY-ACADEMIC …, priority 2015, published 2018):

Tests used:
IFN-γ = IFN-γ secretion by allogeneic reactive T cells in mixed lymphocyte reaction (ELISA); type: cell-based, mouse (Balb/c, C57BL/6); conditions: metformin 1000 μM, rapamycin 1 nM or 100 nM; 3 days
Treg cells = assay: Treg cell activity in splenocytes under anti-CD3 activation (flow cytometry); type: cell-based, C57BL/6 mice; conditions: metformin 1000 μM, rapamycin 100 nM; 3 days; anti-CD3 0.5 μg/ml
Method: Splenocytes obtained from normal C57BL/6 mice were added at 1×10^6 cells in the 24-well plate, and treated with metformin (1000 μM) or rapamycin (100 nM) according to experimental conditions, followed by incubation for 3 days, under anti-CD3 activation conditions (0.5 μg/ml). For flow cytometry, the cells were treated with anti-CD4-percp antibody and anti-CD25-APC antibody, followed by incubation at 4[…] for 30 minutes, and then the cells were subjected to permeabilization, and then reacted with anti-Foxp3-PE. For analysis of Treg activity, the cells expressing the CD4+CD25+Foxp3+ marker were gated and analyzed. The results were expressed by a bar graph showing the proportion of Foxp3+CD25+ cells occupying in the cultured all CD4+ cells.

[1] = system: LPS-stimulated splenocytes; assay: Immunoglobulin (IgG) in culture liquid of LPS-stimulated splenocytes (ELISA); type: cell-based, mouse; conditions: LPS 100 ng/ml; metformin 1000 uM, rapamycin 100 nM
Method: (§1) Splenocytes obtained from normal C57BL/6 mice were added into a 24-well plate (1×10^6 cells/well), and stimulated by LPS (100 ng/ml), and then treated with metformin (1000 uM) or rapamycin (100 nM) according to experimental conditions, followed by incubation for 3 days. The concentrations of IL-1β and TNF-α present in the culture liquid were measured by ELISA. Statistical analysis was conducted by using Graph prism (t-test, ANOVA), and values of p<0.05 were considered statistically significant.
Thereafter, the level of IgG present in the culture liquid was measured by ELISA.

IL-17 = IL-17 secretion by splenocytes in T cell activation conditions (ELISA); type: cell-based, C57BL/6 mice; conditions: metformin 1000 uM, rapamycin 100 nM; 3 days; anti-CD3 0.5 μg/ml; vs Nil
Method: (§2) Splenocytes obtained from normal C57BL/6 mice were added at 2×10^5 cells in the 96-well plate, and treated with metformin (1000 μM) or rapamycin (100 nM) according to experimental conditions, followed by incubation for 3 days, under anti-CD3 activation conditions (0.5 μg/ml). For MTT analysis, 3-(4,5-dimethyl-thiazol-2-yl)-2,5-diphenyltetrazolium bromide was added 4 hours before cell harvest, followed by incubation for 4 hours, and then each well was treated with DMSO, and the absorbance was measured at the wavelength of 540 nm.
The cells were treated with metformin (1000 uM) or rapamycin (100 nM) according to experimental conditions, followed by incubation for 3 days, and then the amount of IL-17 present in the culture liquid was measured by ELISA.

[2] = system: LPS-stimulated splenocytes; assay: Inflammatory cytokines secreted in LPS-stimulated splenocytes (ELISA); type: cell-based, C57BL/6 mice; conditions: LPS 100 ng/ml; metformin 1000 uM, rapamycin 100 nM; 3 days
Method: as §1, with “The concentrations of IL-1β and TNF-α present in the culture liquid were measured by ELISA.” left out

[3] = system: Splenocytes obtained from normal C57BL/6 mice; assay: MTT non-specific cytotoxicity in T cell activation conditions; type: cell-based; conditions: metformin 1000 μM, rapamycin 100 nM; 3 days; anti-CD3 0.5 μg/ml
Method: as §2

[4] = system: allogeneic reactive T cells; assay: Allogeneic reactive T cell proliferation, mixed lymphocyte reaction ([3H]-thymidine uptake); type: cell-based, mouse (Balb/c, C57BL/6); conditions: metformin 1000 uM, rapamycin 1 nM or 100 nM; 3 days
Method: CD4+ T cells (2×10^5 cells/well) from normal donors (Balb/c, responder) and splenocytes (2×10^5 cells/well) with T cells removed, which were derived from irradiated recipients (syngeneic) or donors (C57BL/ 6, stimulator, allogeneic), were added to each well of a 96-well plate, followed by mixed incubation. Here, for the allogeneic reaction, the cells were treated with metformin (1000 uM) and rapamycin (1 nM or 100 nM) according to experimental conditions, followed by incubation for 3 days. On the last day of the incubation, [^3H]-thymidine was added, followed by additional incubation for 18 hours, and the [^3H]-thymidine uptake of cells was measured by the Liquid Scintillation Counter (Beckman, USA), and expressed as cpm. Statistical assay was conducted by using Graph prism (t-test, ANOVA), and values of p<0.05 were considered statistically significant.

[5] = system: Synovial cells isolated from patients with rheumatoid arthritis (RA); assay: Measurement of mitochondrial respiration (oxygen consumption rate); type: cell-based, human; conditions: rapamycin 100 nM
Method: The present inventors examined the effect of metformin on rapamycin-induced mitochondrial respiration deterioration. The cells were treated with rapamycin (100 nM) alone or co-treated with rapamycin (100 nM) and metformin (1 mM), and then the mitochondrial respiratory rate was examined through the measurement of the oxygen consumption rate. Oligomycin and FCCP treatment conditions were the same.

NIH3T3 cells [6] = assay: Analysis of mitochondrial membrane potential (JC-1 staining); type: cell-based; conditions: 72-hr incubation; rapamycin 1 nM, metformin 200 uM or 1 mM
Method: For JC-1 staining, the cells were incubated in JC-1, which had been diluted in DMEM to a final concentration of 100 nM, at 37 °C for 15 minutes, and then the exchange into new DMEM medium was conducted, followed by observation by fluorescent microscopy.

NIH3T3 cells [7] = assay: Analysis of mitochondrial content (MitoTracker staining); type: cell-based; conditions: 72-hr incubation; rapamycin 1 nM, metformin 200 uM or 1 mM
Method: The mitochondria were observed by fluorescent microscopy for each experimental condition. Specifically, the MitoTracker was diluted in DMEM medium to a concentration of 100 nM, and then added on the NIH3T3 plate, followed by incubation at 37° C. for 15 minutes and washing with PBS. Thereafter, for α-tubulin staining, the cells were fixed with acetone and methanol (1:1) for 15 minutes, and then washed with PBS for 15 minutes.

[8] = system: collagen-induced arthritis mouse models; assay: Glucose tolerance test and insulin tolerance test in arthritis animal models; type: in vivo; conditions: arthritis mice after 12 weeks, rapamycin 1 mg/kg
Method: The intraperitoneal glucose tolerance test was performed by intraperitoneal injection of glucose at 1 g/kg of body weight after fasting for 12 hours. The insulin tolerance test was performed at 30 minutes interval after the subcutaneous injection of […] at 1 U/kg of body weight.

Sprague-Dawley rats = assay: Rapamycin-induced diabetic symptoms and metformin co-administration in rats (body weight, urine volume, IPGTT, ITT); type: in vivo, rat
Method: As experimental animals, Sprague-Dawley rats with 200-220 grams were used. The animals were fed with a 0.05% low-salt diet, and the experiment was conducted for a total of 6 weeks while drugs were administered according to experimental conditions (FIG. 5). […] Rapamycin dissolved in olive oil was subcutaneously injected into the rapamycin administered alone group (Rapamycin) and the co-administered group (Rapa+Met) at a dose of 0.3 mg/kg of body weight every day for six weeks. Metformin was orally administered at a dose of 250 mg/kg of body weight every day for 2.5 weeks from the 3.5 weeks of rapamycin administration. Distilled water (DW, 3 mL/kg) instead of metformin was orally administered into the rapamycin administered alone group and the control group. The body weight and 24-hr urine volume of the control and experimental groups were measured six weeks after the start of the experiment FIGS. 6A and 6B. The urine volume was measured in the metabolic cage. The animals of each group were tested for the intraperitoneal glucose tolerance test (IPGTT) and the insulin tolerance test (ITT), and the change in blood glucose level over time was observed FIGS. 7A, 7B, 8A and 8B). The intraperitoneal glucose tolerance test (IPGTT) was performed by intraperitoneal administration of 1.5 g/kg of body weight of glucose after fasting. The insulin resistance test was carried out such that the blood glucose level was measured at 30-min intervals after subcutaneous injection of insulin at 0.8 U/kg of body weight following 5-hr fasting. The quantitative index (area under the curve of glucose, AUCg) was derived using a graph of blood glucose level change per hour, and was expressed as a bar graph. Data were expressed as mean value±standard deviation, and statistical significance was determined by student's t-test.

[9] = rapamycin 0.3 mg/kg s.c. daily 6 weeks, metformin 250 mg/kg oral daily from 3.5 weeks, vs control group (VH)

Row | Structure (SMILES) | secretion of IFN-γ (IFN-γ) | Treg activity (proportion of Foxp3+CD25+ cells in CD4+ cells) (Treg cells) | concentration of immunoglobulin (IgG) present in the culture liquid [1] | amount of IL-17 present in the culture liquid (IL-17) | concentration of IL-6 present in the culture liquid [2] | concentration of TNF-α present in the culture liquid [2] | non-specific cytotoxicity (MTT) [3] | allogeneic reactive T cell proliferation ([3H]-thymidine uptake, cpm) [4] | increase in mitochondrial respiratory rate by FCCP ([5]; FCCP 3 uM, metformin 1 mM) | mitochondrial respiration capacity (oxygen consumption rate) ([5]; before the treatment with oligomycin, vs control group) | mitochondrial membrane potential (JC-1 staining) (NIH3T3 cells [6]) | mitochondrial content (MitoTracker) (NIH3T3 cells [7]) | blood glucose level in intraperitoneal glucose tolerance test ([8]; glucose 1 g/kg i.p. after 12 h fasting, metformin 50 mg/kg) | glucose level in insulin tolerance test, start point of measurement [8] | blood glucose level in insulin tolerance test, after the start point ([8]; metformin 50 mg/kg, vs control group (Vehicle)) | blood glucose level in intraperitoneal glucose tolerance test (IPGTT) (Sprague-Dawley rats; glucose 1.5 g/kg i.p. after fasting, rapamycin 0.3 mg/kg, metformin 250 mg/kg) | blood glucose level in insulin tolerance test (ITT) (Sprague-Dawley rats; insulin 0.8 U/kg s.c. after 5-hr fasting, rapamycin 0.3 mg/kg, metformin 250 mg/kg) | 24-hr urine volume (Sprague-Dawley rats; [9]) | body weight (Sprague-Dawley rats; [9])
1 | CN(C)C(=N)NC(=N)N [metformin] | reduced | increased | reduced | reduced | reduced | reduced | no non-specific cytotoxicity | reduced the cpm values |  |  |  |  |  |  |  |  |  |  | 
2 | CO[C@H]1C[C@@H]2CC[C@@H](C)[C@@](O)(O2)C(=O)C(=O)N2CCCC[C@H]2C(=O)O[C@H]([C@H](C)C[C@@H]2CC[C@@H](O)[C@H](OC)C2)CC(=O)[C@H](C)/C=C(\C)[C@@H](O)[C@@H](OC)C(=O)[C@H](C)C[C@H](C)/C=C/C=C/C=C/1C [rapamycin] | reduced | increased | reduced | reduced | reduced | reduced | no non-specific cytotoxicity | reduced the cpm values | remarkably low | reduced respiration capacity compared with the control group | not normally maintained | reduced | the highest | the highest | maintained at similar levels | highest blood glucose level among the three groups | highest blood glucose level among the three groups | significantly increased | significant reductions
